Assay results reported in patent US20260137701A1, “CHOLESTENOIC ACID (CA) AND A SULFATED DERIVATIVE THEREOF, 3[BETA]-SULFATE-5-CHOLESTENOIC ACID (CA3S), AS ENDOGENOUS EPIGENETIC REGULATORS” (priority 2022, published 2026).

Test system: HepG-2 cells
Assay: Untargeted lipidomics analysis
Type: cell-based, human
Description: HepG-2 cells were cultured in DMEM medium with HG for 72 hours followed by treating with 20 μM CA for 24, 48, and 72 hours. The cells were harvested with 500 μl 1× PBS, and sent to Creative Proteomics Co., Ltd (New York, USA) for untargeted lipidomics analysis. Samples were thawed and 1.5 mL chloroform:methanol (2:1, v/v) added to sample, vortexed for 1 min, and followed by sonication for 30 min, 4° C. Then centrifuge 10 min at 12,000 rpm, 4° C., transfer the lower phase to a new tube, dry under the nitrogen. The dried extract with 200 μl of isopropyl alcohol:methanol (1:1, v/v); add 5 μl LPC (12:0) for internal standard. Finally, centrifuge 10 min at 12,000 rpm, 4° C.; transfer the supernatant for LC-MS analysis. Separation is performed by UltiMate™ 3000 LC combined with Q Exactive™ MS (Thermo) and screened with ESI-MS. The LC system is comprised of ACQUITY UPLC® BEH C18 (100×2.1 mm×1.7 μm) with UltiMate™ 3000 LC. The mobile phase is composed of solvent A (60% ACN+40% H2O+10 mM HCOONH4) and solvent B (10% ACN+90% isopropyl alcohol+10 mM HCOONH4) with a gradient elution (0-10.5 min, 30%-100% B; 10.5 min-12.5 min, 100% B; 12.5-12.51 min, 100%-30% B; 12.51-16.0 min, 30% B). The flow rate of the mobile phase is 0.3-1 mL·min. The column temperature is maintained at 40° C., and the sample manager temperature is set at 4° C. Mass spectrometry parameters in ESI+ and ESI− mode are listed as follows: ESI+: Heater Temp 300° C.; Sheath Gas Flow rate, 45 arb; Aux Gas Flow Rate, 15 arb; Sweep Gas Flow Rate, larb; spray voltage, 3.0 KV; Capillary Temp, 350° C.; S-Lens RF Level, 30%. ESI−: Heater Temp 300° C., Sheath Gas Flow rate, 45 arb; Aux Gas Flow Rate, 15 arb; Sweep Gas Flow Rate, larb; spray voltage, 3.2 KV; Capillary Temp, 350° C.; S-Lens RF Level, 60%.

SMILES: CC(CCC[C@@H](C)[C@H]1CC[C@H]2[C@@H]3CC=C4C[C@@H](O)CC[C@]4(C)[C@H]3CC[C@]12C)C(=O)O (stereo partly drawn) [CA, 3β-hydroxy-5-cholestenoic acid]
- average decreased percentage of ChE (cholesterol ester) (20 μM CA, 48 hours): 47%
- average decreased percentage of DG (Diglycerides) (20 μM CA, 48 hours): 76%
- average decreased percentage of FA (20 μM CA, 48 hours): 65%
- average decreased percentage of MG (Monoglycerides) (20 μM CA, 48 hours): 53%
- average decreased percentage of TG (Triglycerides) (20 μM CA, 48 hours): 70%
- lipid levels (GP, SP, GL, ST, FA) (HG medium 72 hours, then 20 μM CA): significantly decreased
